Here are results for 31 compounds from paper PMC6009902, “1-(Benzo[d]thiazol-2-yl)-3-phenylureas as dual inhibitors of casein kinase 1 and ABAD enzymes for treatment of neurodegenerative disorders” (Journal of Enzyme Inhibition and Medicinal Chemistry, 2018).

Where “and” joins values, the source holds several entries; their conditions need not be identical. Identical values can stand only once.

Data set [1] deals with T1, Human recombinant Casein Kinase 1 delta (CK1δ) (Homo sapiens, UniProt P48730).
T1 construct: purchased Millipore (Millipore Iberica S.A.U.)
T1 sequence (P48730 whole entry): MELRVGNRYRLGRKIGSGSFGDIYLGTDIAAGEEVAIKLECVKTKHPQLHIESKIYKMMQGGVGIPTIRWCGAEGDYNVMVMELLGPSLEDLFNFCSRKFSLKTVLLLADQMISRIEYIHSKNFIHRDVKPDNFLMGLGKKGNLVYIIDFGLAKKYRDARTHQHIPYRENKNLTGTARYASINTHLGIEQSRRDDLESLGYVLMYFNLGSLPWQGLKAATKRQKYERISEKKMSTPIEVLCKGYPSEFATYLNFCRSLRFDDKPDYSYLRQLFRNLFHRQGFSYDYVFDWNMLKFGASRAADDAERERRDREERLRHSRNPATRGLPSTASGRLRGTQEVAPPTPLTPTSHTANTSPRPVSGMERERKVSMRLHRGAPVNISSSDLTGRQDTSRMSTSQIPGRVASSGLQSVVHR
The data set is described as follows: CK-1δ Kinase-Glo assay. To be noted: for IC50: human recombinant enzyme, mean of two independent experiments, read-out: IC50 CK1δ (µM ± SD); for CK1δ inhibition (value in parentheses): screening at fixed concentration of 10 µM. It counts as biochemical. The procedure:
(§1) The Kinase-Glo Kit was purchased from Promega (Promega Biotech Ibérica, SL) and was used to screen compounds for activity against CK-1δ and CK1ε. Human recombinant Casein Kinase 1 delta and epsilon was purchased from Millipore (Millipore Iberica S.A.U.). Casein solution from bovine milk, 5%, was purchased from Sigma-Aldrich (St. Louis, MO, USA). ATP and all other reagents were from Sigma-Aldrich (St. Louis, MO, USA). Kinase-Glo assays were performed in assay buffer using black 96-well plates. In a typical assay, 10 µL of test compound (dissolved in DMSO at 1 mM concentration and diluted in advance in assay buffer to the desired concentration) 10 µL (16 ng) of enzyme were added to each well followed by 20 µL of assay buffer containing 0.1% casein as substrate and 4 µM ATP. […] After 60 min incubation at 30 °C the enzymatic reaction was stopped with 40 µL of Kinase-Glo reagent. Glow-type luminescence was recorded after 10 min using a FLUOstar Optima (BMG Labtechnologies GmbH, Offenburg, Germany) multimode reader. The activity is proportional to the difference of the total and consumed ATP. The inhibitory activities were calculated on the basis of maximal activities measured in the absence of inhibitor. […] Each value is the mean of two independent experiments.
Compounds were screened against human recombinant enzyme CK1δ at a fixed concentration of 10 µM.
(Kinase-Glo measures the ATP left after a reaction by luminescence.)

The target in data set [2] is T2, Human recombinant Casein Kinase 1 epsilon (CK1ε) (Homo sapiens, UniProt P49674).
T2 construct: purchased Millipore (Millipore Iberica S.A.U.)
T2 sequence (P49674 whole entry): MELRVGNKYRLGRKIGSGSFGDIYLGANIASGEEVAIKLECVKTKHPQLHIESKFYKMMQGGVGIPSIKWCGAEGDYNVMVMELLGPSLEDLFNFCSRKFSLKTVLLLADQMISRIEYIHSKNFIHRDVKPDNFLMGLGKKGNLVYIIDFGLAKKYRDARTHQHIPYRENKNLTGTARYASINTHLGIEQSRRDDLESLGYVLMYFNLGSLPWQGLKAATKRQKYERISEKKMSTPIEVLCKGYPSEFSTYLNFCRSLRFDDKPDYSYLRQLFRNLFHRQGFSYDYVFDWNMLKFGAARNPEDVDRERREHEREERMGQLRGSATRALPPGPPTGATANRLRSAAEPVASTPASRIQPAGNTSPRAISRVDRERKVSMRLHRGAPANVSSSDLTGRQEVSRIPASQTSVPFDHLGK
The data set is described as follows: CK-1ε Kinase-Glo assay. It counts as biochemical. To be noted: for IC50: human recombinant enzyme, mean of two independent experiments, read-out: IC50 CK1ε (µM ± SD). On the procedure:
as §1, with “experiments. […]” for “experiments.”

A further data set can be described thus: PAMPA-BBB assay. To be noted: for Pe (10^−6 cm s^−1): 2.5 h. On the procedure:
Prediction of the BBB penetration was evaluated using a parallel artificial membrane permeability assay (PAMPA) using the setup according to Di et al.[12]. Ten commercial drugs, phosphate buffer saline solution at pH 7.4 (PBS), Ethanol and dodecane were purchased from Sigma, Acros organics, Merck, Aldrich and Fluka. […] Filter PDVF membrane units (diameter 30 mm, pore size 0.45 µm) from Symta were used to filtered the samples. A 96-well plate UV reader (Thermo Scientific, Multiskan spectrum) was used for the UV measurements. […] About 100 µL of this compound stock solution was taken and […] of EtOH and 3500 µL of PBS pH = 7.4 buffer were added to reach 30% of EtOH concentration in the experiment. These solutions were filtered. The acceptor 96-well microplate was filled with 180 µL of PBS/EtOH (70/30). The donor 96-well plate was coated with 4 µL of porcine brain lipid in dodecane (20 mg mL^−1) and after 5 min, 180 µL of each compound solution was added. About 1–2 mg of every compound to be determined their ability to pass the brain barrier were dissolved in 1500 µL of EtOH and 3500 µL of PBS pH = 7.4 buffer, filtered and then added to the donor 96-well plate. Then the donor plate was carefully put on the acceptor plate to form a “sandwich”, which was left undisturbed for 2 h and 30 min at 25 °C. During this time the compounds diffused from the donor plate through the brain lipid membrane into the acceptor plate. After incubation, the donor plate was removed. UV plate reader determined the concentration of compounds and commercial drugs in the acceptor and the donor wells. Every sample was analysed at three to five wavelengths, in three wells and in two independent runs. […] 10 quality control compounds (previously mentioned) of known BBB permeability were included in each experiment to validate the analysis set.
Parallel Artificial Membrane Permeability Assay (PAMPA) is technique developed to predict passive permeability through biological membranes. […] An assay validation was made comparing the reported permeability values of commercial drugs with the experimental data obtained employing this methodology.

Data set [3] concerns the target amyloid-beta binding alcohol dehydrogenase (ABAD). On the set-up: method as in PMID 27287370. To be noted: cited from earlier work.
The next data set deals with CK1δ. Also on record: method as in PMID 20577972. To be noted: standards; cited from earlier work.
The test system of a further data set is CK1ε. Also on record: method as in PMID 20577972. Particulars: standards; cited from earlier work.

Consider `O=C(Nc1ccc(Oc2ccccc2)cc1)Nc1nc2ccc(Cl)cc2s1` [Compound K701], for which, in data set [1], the half-maximal inhibitory concentration (IC50) was over 10 µM and the “CK1δ inhibition (value in parentheses)” value turned out to be 37%.

As for `O=C(Nc1ccc(Oc2ccccc2)cc1)Nc1nc2ccc(F)cc2s1` [Compound K700], in data set [1], the IC50 is over 10 µM and the “CK1δ inhibition (value in parentheses)” value is on record as 36%.

As for `O=C(Nc1ccc(O)c(C(=O)O)c1)Nc1nc2ccc(F)cc2s1` [Compound K692], in data set [1], the “SI (Selectivity index = IC50CK1ε/IC50CK1δ)” value came out at 9.2 and the IC50 was determined as 0.91 ± 0.31 µM. For the same compound, in data set [2], the IC50 is 8.41 ± 0.71 µM.

`CN(C)CCCN1c2ccccc2Sc2ccccc21` [promazine, reference compound] gave a Papp at 2.5 h in the data set “PAMPA-BBB assay” (pig, pH 7.4) of 8.1 ± 0.1 ×10⁻⁶ cm/s.

For `O=C(Nc1ccc(O)cc1)Nc1nc2ccc(F)cc2s1` [Compound K684], the IC50 in data set [1] worked out at 1.37 ± 0.23 µM.

Take `O=C(Nc1ccc(O)c(C(=O)O)c1)Nc1nc2ccc(Cl)cc2s1` [Compound K693]: the “SI (Selectivity index = IC50CK1ε/IC50CK1δ)” value in data set [1] is recorded as 5.7. For the same compound, the IC50 in data set [1] was < 0.5 µM and 0.4 µM; in data set [2] it was ~2 µM and 2.29 µM.

Regarding `O=C(Nc1ccc(C(=O)O)cc1)Nc1nc2ccc(Cl)cc2s1` [Compound K703], the “SI (Selectivity index = IC50CK1ε/IC50CK1δ)” value in data set [1] was found to be 12.3. For the same compound, the IC50 is < 0.5 µM and 0.3 µM in data set [1]; 3.69 ± 0.41 µM in data set [2].

With `COc1ccc(NC(=O)Nc2nc3ccc(F)cc3s2)cc1` [Compound K694], in data set [1], the IC50 was found to be 7.38 ± 0.93 µM.

As for `O=C(Nc1ccc(O)cc1)Nc1nc2ccc(Cl)cc2s1` [Compound K685], in data set [1], the “SI (Selectivity index = IC50CK1ε/IC50CK1δ)” value came to 15.3 and the IC50 is 0.59 ± 0.06 µM. For the same compound, in data set [2], the IC50 was 9.01 ± 0.37 µM.

In the case of `COc1ccc(NC(=O)Nc2nc3ccc(Cl)cc3s2)cc1` [Compound K695], the IC50 in data set [1] is 8.87 ± 0.73 µM.

As for `O=C(Nc1nc2ccc(Cl)cc2s1)Nc1ccccc1O` [Compound K689], in data set [1], the “SI (Selectivity index = IC50CK1ε/IC50CK1δ)” value is recorded as 8.1; the IC50 is < 0.5 µM and 0.48 µM. The IC50 in data set [2] was 3.91 ± 0.4 µM.

For the compound `O=C(Nc1ccc(O)c(Cl)c1)Nc1nc2ccc(Cl)cc2s1` [Compound K691], the “SI (Selectivity index = IC50CK1ε/IC50CK1δ)” value in data set [1] is 4.1. For the same compound, the results for the IC50 in data set [1], in data set [2] and in data set [3] were 0.73 ± 0.21 µM, 3.01 ± 0.33 µM and 1670 nM, respectively. The “ability to cross the BBB (in words)” value in “PAMPA-BBB assay” is listed as “able to cross the BBB by passive permeation”. In “PAMPA-BBB assay” (pig, pH 7.4), the “Pe (10^−6 cm s^−1)” value is 14 ± 2 10^−6 cm s^−1.

As for `CCOC(=O)c1ccc(NC(=O)Nc2nc3ccc(F)cc3s2)cc1` [Compound K704], in data set [1], the IC50 is over 10 µM and the “CK1δ inhibition (value in parentheses)” value is on record as 31%.

For the compound `O=C(Nc1cccc(O)c1)Nc1nc2ccc(Cl)cc2s1` [Compound K687], in data set [1], the “SI (Selectivity index = IC50CK1ε/IC50CK1δ)” value is reported as 12.0. Besides, the IC50 in data set [2] was ~2 µM and 1.92 µM.

With `COC(=O)c1ccc(NC(=O)Nc2nc3ccc(Cl)cc3s2)cc1` [Compound K707], the IC50 in data set [1] is 8.73 ± 0.71 µM.

Consider `CCOC(=O)c1ccc(NC(=O)Nc2nc3ccc(Cl)cc3s2)cc1` [Compound K705], for which, in data set [1], the IC50 is over 10 µM and the “CK1δ inhibition (value in parentheses)” value is recorded as 45%.

As to `COC(=O)c1ccc(NC(=O)Nc2nc3ccc(F)cc3s2)cc1` [Compound K706], in data set [1], the IC50 is over 10 µM and the “CK1δ inhibition (value in parentheses)” value worked out at 48%.

Regarding `CC(=O)Nc1ccc(NC(=O)Nc2nc3ccc(F)cc3s2)cc1` [Compound K708], in data set [1], the IC50 is over 10 µM and the “CK1δ inhibition (value in parentheses)” value came out at 39%.

Consider `COc1ccc(NC(=O)Nc2nc3ccc(Cl)cc3s2)cc1C(=O)O` [Compound K699], for which the “SI (Selectivity index = IC50CK1ε/IC50CK1δ)” value in data set [1] came out at 7.6. The IC50 is < 0.5 µM and 0.46 µM in data set [1]; 3.49 ± 0.09 µM in data set [2].

Regarding `COc1ccc(NC(=O)Nc2nc3ccc(Cl)cc3s2)cc1OC` [Compound K697], the “SI (Selectivity index = IC50CK1ε/IC50CK1δ)” value in data set [1] is listed as over 14.5. For the same compound, the IC50 in data set [1] was 0.69 ± 0.19 µM; in data set [2], over 10 µM. In addition, the “CK1ε inhibition (value in parentheses)” value in data set [2] (printed beside IC50 >10 µM) is 26%.

In the case of `NC(=O)c1ccc(-c2nc(-c3ccc4c(c3)OCCO4)c(-c3ccccn3)[nH]2)cc1` [Compound D4476, D4476], the IC50 in the data set with CK1δ was […].

For `O=C(Nc1cccc(O)c1)Nc1nc2ccc(F)cc2s1` [Compound K686], the “SI (Selectivity index = IC50CK1ε/IC50CK1δ)” value in data set [1] turned out to be 4.7. For the same compound, the values for the IC50 in data set [1] and in data set [2] were 0.86 ± 0.1 µM and 4.02 ± 0.16 µM, respectively.

Turning to `COc1cc(OC)c(C=C2C(O)=Nc3ccccc32)c(OC)c1` [IC261], the IC50 in the data set with CK1δ and in the data set on CK1ε was 1000 nM each time.

On to `O=C(Nc1ccc(C(=O)O)cc1)Nc1nc2ccc(F)cc2s1` [Compound K702], for which, in data set [1], the IC50 was 2.99 ± 0.36 µM.

In the case of `O=C(Nc1nc2ccc(F)cc2s1)Nc1ccccc1O` [Compound K688], in data set [1], the “SI (Selectivity index = IC50CK1ε/IC50CK1δ)” value was determined as 8.1 and the IC50 turned out to be 0.9 ± 0.14 µM. Further, the IC50 in data set [2] was 7.33 ± 0.29 µM.

In the case of `COC(=O)c1cc(NC(=O)Nc2nc3ccc(F)cc3s2)ccc1O` [Compound K710], in data set [1], the IC50 is over 10 µM and the “CK1δ inhibition (value in parentheses)” value came to 24%.

On to `COC(=O)c1cc(NC(=O)Nc2nc3ccc(Cl)cc3s2)ccc1O` [Compound K711], for which the IC50 in data set [1] came to 9.98 ± 0.96 µM.

As to `O=C(Nc1ccc(O)c(Cl)c1)Nc1nc2ccc(F)cc2s1` [Compound K690], the “SI (Selectivity index = IC50CK1ε/IC50CK1δ)” value in data set [1] is 12.0. In addition, the IC50 in data set [1] was 0.84 ± 0.16 µM; in data set [2] it was 10.1 ± 0.74 µM; in data set [3] it was 1890 nM. The “ability to cross the BBB (in words)” value in “PAMPA-BBB assay” was “able to cross the BBB by passive permeation”. Also, the “Pe (10^−6 cm s^−1)” value in the data set “PAMPA-BBB assay” (pig, pH 7.4) is 13.2 ± 1.4 10^−6 cm s^−1.

As for `COc1ccc(NC(=O)Nc2nc3ccc(F)cc3s2)cc1OC` [Compound K696], in data set [1], the IC50 is over 10 µM and the “CK1δ inhibition (value in parentheses)” value is 23%.

Consider `CC(=O)Nc1ccc(NC(=O)Nc2nc3ccc(Cl)cc3s2)cc1` [Compound K709], for which the IC50 in data set [1] worked out at 1.32 ± 0.15 µM.

For the compound `COc1ccc(NC(=O)Nc2nc3ccc(F)cc3s2)cc1C(=O)O` [Compound K698], the IC50 in data set [1] is 3.37 ± 0.4 µM.

For orientation: IC50 means the concentration needed to halve the response being measured. Broadly, the Papp is a coefficient for how fast a substance crosses the barrier.
